# Assay: Plasma concentration (Cmax) of gabapentin in the rat
compound,measurement,value
"NCC1(CC(=O)O)CCCCC1 [gabapentin, 1-(aminomethyl)-cyclohexylacetic acid]",Cmax,520 to 10500 ng/mL

# — patent US20070191350A1, “Combinations comprising alpha-2-delta ligands” (Pifizer Inc., priority 2004, published 2007)
